Values after ≈ are worked out from the molar mass of the structure shown.
What follows are compounds tested on P388 (assay: In vivo antitumor activity against mouse P388 cells at 30 ug/kg). Conditions: not given.
Type: functional

SMILES	T/C
C=C(C)[C@@]12C[C@@H](C)[C@@]34OC5(O[C@@H]1[C@@H]3[C@@H]1O[C@]1(CO)[C@@H](O)[C@@]1(O)[C@H]4[C@H]([C@H](C)[C@@H]1OC(=O)c1ccccc1)[C@H](C)CCCCCC[C@H]5O)O2 [KRAUSSIANIN]	152%

These compounds were tested on P388 (assay: Cytotoxicity against mouse P388 cells). Conditions: read-out: ED50 (the source's name).
Type: functional

SMILES	EC50
C=C(C)[C@]12C[C@@H](C)[C@@]34O[C@@]5(CCCCCCC[C@H](C)[C@H]6[C@H](C)[C@H](OC(=O)c7ccccc7)[C@@](O)([C@H](O)[C@@]7(CO)O[C@H]7[C@@H]3[C@H]1O5)[C@@H]64)O2	2.3 ng/mL (≈ 3.6 nM)
C=C(C)[C@]12C[C@@H](C)[C@@]34O[C@](/C=C/C=C/CCCCC)(O[C@@H]1[C@@H]3[C@@H]1O[C@]1(CO)[C@@H](O)[C@]1(O)C(=O)C(C)=C[C@H]14)O2 [EXCOECARIA TOXIN]	0.24 ng/mL (≈ 0.454 nM)
C=C(C)[C@@]12O[C@@]3(/C=C/C=C/CCCCC)O[C@@H]1[C@@H]1[C@@H]4O[C@]4(CO)[C@@H](O)[C@]4(O)C(=O)C(C)=C[C@H]4[C@@]1(O3)[C@H](C)[C@H]2OC(=O)c1ccccc1 [GNIDILATIDIN]	< 1 ng/mL
C=C(C)[C@@]12O[C@@]3(CCCCCCCCC)O[C@@H]1[C@@H]1[C@@H]4O[C@]4(CO)[C@@H](O)[C@]4(O)C(=O)C(C)=C[C@H]4[C@@]1(O3)[C@H](C)[C@H]2OC(=O)c1ccccc1 [GNIDILATIN]	< 1 ng/mL
C=C(C)[C@@]12C[C@@H](C)[C@@]34OC5(O[C@@H]1[C@@H]3[C@@H]1O[C@]1(CO)[C@@H](O)[C@@]1(O)[C@H]4[C@H]([C@H](C)[C@@H]1OC(=O)c1ccccc1)[C@H](C)CCCCCC[C@H]5O)O2 [KRAUSSIANIN]	0.78 ng/mL (≈ 1.19 nM)

Source: ChEMBL document CHEMBL1151297, “Studies of the Thymelaeaceae II. Antineoplastic principles of Gnidia kraussiana” (1984)
